Experimental data from patent publication US20080118458A1, “Agent containing L-Carnitine or L-Carnitine derivatives and at least one other specific substance” (priority 2005, published 2008).

Key:
[1] = tested on: Keratinocyte Growth Factor (KGF); assay: Release of KGF into the medium of organotypical cell cultures (ELISA); type: cell-based; conditions: 72 h; individual substance 0.01%; untreated = 100
Experimental: (§1) Hepatocyte Growth Factor (HGF) and Keratinocyte Growth Factor (KGF) are important growth factors which are released from the dermal papillae in order to control the proliferation of the hair keratinocytes. A potentially growth-promoting and hair-strengthening substance can be assumed from an increase in the factors released into the medium. The release of HGF and KGF can be quantified with the help of commercially available ELISA kits. For this, organotypical cell cultures are incubated over 72 h with the substance mixture and the concentration of the growth factors in the medium is determined in the described manner.

[2] = tested on: Hepatocyte Growth Factor (HGF); assay: Release of HGF into the medium of organotypical cell cultures (ELISA); type: cell-based; conditions: 72 h; individual substance 0.01%; untreated = 100
Experimental: as §1

## C[N+](C)(C)C[C@H](O)CC(=O)[O-].O=C(O)C(O)C(O)C(=O)O [Carnitine tartrate, L-carnitine tartrate]
[1]
  KGF mean [%] (standard deviation): 108 (8) %
[2]
  HGF mean [%] (standard deviation): 100 (42) %

## NCCS(=O)(=O)O [Taurine, 2-aminoethanesulfonic acid]
[1]
  KGF mean [%] (standard deviation): 71 (7) %
[2]
  HGF mean [%] (standard deviation): 120 (21) %
